Measured values as given in patent publication US8507489B2, “Bicyclic triazoles as protein kinase modulators” (SGX Pharmaceuticals, Inc., priority 2006, dated 2013).

What was measured:
PLK1 = PLK1 (Homo sapiens, UniProt P53350); test: SelectScreen Kinase Profiling PLK1; format: biochemical
Text: (§1) SelectScreen™ is a trademark screening assay protocol for kinases developed by Invitrogen Corporation, Madison, Wis. Details on assay conditions can be found on the company's website.

ROS1 = ROS1 (Homo sapiens, UniProt P08922); test: SelectScreen Kinase Profiling ROS1; format: biochemical
Chain of ROS1 (P08922 28-2347): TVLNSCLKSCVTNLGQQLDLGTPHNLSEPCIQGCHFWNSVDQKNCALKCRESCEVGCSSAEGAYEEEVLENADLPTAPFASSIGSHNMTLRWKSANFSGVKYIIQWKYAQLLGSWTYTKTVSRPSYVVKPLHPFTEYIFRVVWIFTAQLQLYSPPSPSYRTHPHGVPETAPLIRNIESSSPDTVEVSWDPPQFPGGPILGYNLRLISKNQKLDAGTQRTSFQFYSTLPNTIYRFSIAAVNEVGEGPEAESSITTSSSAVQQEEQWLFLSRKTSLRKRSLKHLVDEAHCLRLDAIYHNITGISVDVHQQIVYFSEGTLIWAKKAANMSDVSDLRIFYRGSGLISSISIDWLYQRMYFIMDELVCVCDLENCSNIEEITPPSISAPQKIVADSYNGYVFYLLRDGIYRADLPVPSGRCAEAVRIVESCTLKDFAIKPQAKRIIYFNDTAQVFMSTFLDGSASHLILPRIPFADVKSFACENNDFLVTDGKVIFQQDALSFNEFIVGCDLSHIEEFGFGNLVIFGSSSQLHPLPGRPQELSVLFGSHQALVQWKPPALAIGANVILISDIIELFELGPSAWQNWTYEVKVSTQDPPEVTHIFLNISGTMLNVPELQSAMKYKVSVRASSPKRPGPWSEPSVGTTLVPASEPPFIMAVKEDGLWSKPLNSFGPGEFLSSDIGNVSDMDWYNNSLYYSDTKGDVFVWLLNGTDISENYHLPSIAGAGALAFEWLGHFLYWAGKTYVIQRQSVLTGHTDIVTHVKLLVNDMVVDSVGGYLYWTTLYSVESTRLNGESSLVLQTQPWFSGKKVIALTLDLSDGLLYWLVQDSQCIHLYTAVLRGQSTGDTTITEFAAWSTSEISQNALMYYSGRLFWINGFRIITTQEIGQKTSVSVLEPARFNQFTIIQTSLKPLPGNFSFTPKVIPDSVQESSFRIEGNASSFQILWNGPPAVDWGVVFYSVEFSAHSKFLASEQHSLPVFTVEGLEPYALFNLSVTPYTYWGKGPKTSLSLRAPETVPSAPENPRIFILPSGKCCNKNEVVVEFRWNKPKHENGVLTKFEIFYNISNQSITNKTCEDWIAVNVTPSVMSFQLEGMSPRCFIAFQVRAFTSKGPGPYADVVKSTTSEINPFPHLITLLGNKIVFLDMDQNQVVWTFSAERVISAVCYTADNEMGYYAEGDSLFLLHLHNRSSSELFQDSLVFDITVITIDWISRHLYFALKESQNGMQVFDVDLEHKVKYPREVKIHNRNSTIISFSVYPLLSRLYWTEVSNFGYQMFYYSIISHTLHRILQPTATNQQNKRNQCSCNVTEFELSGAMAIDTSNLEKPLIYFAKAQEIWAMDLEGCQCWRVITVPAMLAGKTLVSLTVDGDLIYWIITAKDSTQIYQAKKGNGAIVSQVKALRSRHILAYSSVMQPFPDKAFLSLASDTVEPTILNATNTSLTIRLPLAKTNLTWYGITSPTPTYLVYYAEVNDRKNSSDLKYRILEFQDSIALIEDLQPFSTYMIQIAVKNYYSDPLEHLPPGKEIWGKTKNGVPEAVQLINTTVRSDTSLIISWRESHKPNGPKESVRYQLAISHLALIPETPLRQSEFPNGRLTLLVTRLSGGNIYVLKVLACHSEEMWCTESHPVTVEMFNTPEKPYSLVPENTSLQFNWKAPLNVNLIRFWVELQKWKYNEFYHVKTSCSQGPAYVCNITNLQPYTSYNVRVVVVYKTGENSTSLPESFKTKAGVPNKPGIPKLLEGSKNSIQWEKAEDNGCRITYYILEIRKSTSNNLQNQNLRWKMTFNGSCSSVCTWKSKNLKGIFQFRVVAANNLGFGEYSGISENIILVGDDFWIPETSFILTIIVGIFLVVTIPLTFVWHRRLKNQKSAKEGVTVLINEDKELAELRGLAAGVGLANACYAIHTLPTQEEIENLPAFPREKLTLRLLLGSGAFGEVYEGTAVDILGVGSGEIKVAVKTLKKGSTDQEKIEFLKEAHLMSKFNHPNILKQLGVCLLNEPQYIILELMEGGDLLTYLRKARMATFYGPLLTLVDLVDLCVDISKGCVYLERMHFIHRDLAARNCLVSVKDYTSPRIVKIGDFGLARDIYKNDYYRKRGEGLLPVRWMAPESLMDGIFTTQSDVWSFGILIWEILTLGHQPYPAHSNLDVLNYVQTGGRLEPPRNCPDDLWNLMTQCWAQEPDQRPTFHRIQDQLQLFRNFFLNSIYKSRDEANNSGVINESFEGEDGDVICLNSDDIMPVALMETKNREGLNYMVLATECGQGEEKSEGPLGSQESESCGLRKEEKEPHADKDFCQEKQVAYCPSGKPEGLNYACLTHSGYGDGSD
Text: as §1

TEK (Tie2) = TEK (Tie2) (Homo sapiens, UniProt Q02763); test: SelectScreen Kinase Profiling TEK; format: biochemical
Text: as §1

ALK = ALK (Homo sapiens, UniProt Q9UM73); test: SelectScreen Kinase Profiling ALK; format: biochemical
Chain of ALK (Q9UM73 19-1620): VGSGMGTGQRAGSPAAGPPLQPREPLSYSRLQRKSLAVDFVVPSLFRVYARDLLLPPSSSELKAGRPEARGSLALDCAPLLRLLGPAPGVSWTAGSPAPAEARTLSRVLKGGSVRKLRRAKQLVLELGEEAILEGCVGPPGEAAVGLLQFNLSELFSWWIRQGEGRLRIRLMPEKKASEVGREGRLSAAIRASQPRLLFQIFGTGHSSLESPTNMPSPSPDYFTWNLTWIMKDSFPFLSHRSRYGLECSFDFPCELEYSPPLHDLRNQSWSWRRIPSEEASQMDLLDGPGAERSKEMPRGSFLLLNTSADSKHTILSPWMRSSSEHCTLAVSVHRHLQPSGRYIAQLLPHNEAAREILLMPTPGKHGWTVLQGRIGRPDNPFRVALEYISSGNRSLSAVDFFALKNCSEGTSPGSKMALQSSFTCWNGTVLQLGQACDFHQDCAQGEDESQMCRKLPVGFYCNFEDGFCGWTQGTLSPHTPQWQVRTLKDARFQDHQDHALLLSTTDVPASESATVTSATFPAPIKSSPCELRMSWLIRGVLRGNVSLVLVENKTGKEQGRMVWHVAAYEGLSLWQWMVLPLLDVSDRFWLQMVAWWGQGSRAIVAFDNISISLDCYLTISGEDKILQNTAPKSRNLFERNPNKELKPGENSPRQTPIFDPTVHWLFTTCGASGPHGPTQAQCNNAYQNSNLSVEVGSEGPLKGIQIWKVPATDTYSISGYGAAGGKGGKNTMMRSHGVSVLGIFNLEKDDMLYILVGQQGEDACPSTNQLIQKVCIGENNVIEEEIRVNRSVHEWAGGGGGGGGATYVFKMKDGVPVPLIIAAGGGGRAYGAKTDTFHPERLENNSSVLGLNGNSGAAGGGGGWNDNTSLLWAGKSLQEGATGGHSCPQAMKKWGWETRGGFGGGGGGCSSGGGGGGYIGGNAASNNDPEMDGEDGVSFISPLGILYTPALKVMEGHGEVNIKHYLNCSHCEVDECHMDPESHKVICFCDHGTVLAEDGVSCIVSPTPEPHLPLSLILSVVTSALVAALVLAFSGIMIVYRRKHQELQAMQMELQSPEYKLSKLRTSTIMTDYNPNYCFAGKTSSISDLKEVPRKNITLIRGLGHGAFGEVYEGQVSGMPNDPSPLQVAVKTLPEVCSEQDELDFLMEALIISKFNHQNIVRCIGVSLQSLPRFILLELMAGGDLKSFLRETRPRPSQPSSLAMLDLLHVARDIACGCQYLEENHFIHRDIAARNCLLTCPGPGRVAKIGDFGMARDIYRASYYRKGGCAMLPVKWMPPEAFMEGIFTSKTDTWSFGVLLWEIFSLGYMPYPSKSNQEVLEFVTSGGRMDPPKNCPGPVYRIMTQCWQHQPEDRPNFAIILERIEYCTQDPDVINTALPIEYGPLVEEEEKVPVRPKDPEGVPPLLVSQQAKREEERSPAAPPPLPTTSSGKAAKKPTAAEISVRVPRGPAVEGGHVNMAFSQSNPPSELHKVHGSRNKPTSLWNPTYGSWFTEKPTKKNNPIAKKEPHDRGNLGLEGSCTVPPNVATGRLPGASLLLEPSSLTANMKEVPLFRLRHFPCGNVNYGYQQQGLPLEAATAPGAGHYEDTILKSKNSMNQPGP
Text: as §1

JAK2 JH1 JH2 V617F = biological target: T1, JAK2 JH1 JH2 V617F (Homo sapiens, UniProt O60674, V617F); test: SelectScreen Kinase Profiling JAK2 JH1 JH2 V617F; format: biochemical
T1 construct: JAK2 JH1 JH2 V617F
Text: as §1

AURKB (Aurora B) = AURKB (Aurora B) (Homo sapiens, UniProt Q96GD4); test: SelectScreen Kinase Profiling AURKB; format: biochemical
Text: as §1

BRAF V599E = BRAF V599E (Homo sapiens, UniProt P15056, V600E); test: SelectScreen Kinase Profiling BRAF V599E; format: biochemical
Text: as §1

RPS6KB1 (p70S6K) = RPS6KB1 (p70S6K) (Homo sapiens, UniProt P23443); test: SelectScreen Kinase Profiling RPS6KB1; format: biochemical
Text: as §1

EGFR (ErbB1) = EGFR (ErbB1) (Homo sapiens, UniProt P00533); test: SelectScreen Kinase Profiling EGFR; format: biochemical
Text: as §1

GTL16 cells = test: 96-well XTT cell survival assay (GTL16 cells); format: cell-based; settings: Homo sapiens, GTL 16, 72 hours
Method: GTL16 cells were maintained in DMEM Medium supplemented with 10% fetal bovine serum (FBS) 2 mM L-Glutamine and 100 units penicillin/100 μg streptomycin, at 37° C. in 5% CO2.
Compounds were tested in the following assays in duplicate.
96-well XTT assay (GTL16 cells): One day prior to assay the growth media was aspirated off and assay media was added to cells. On the day of the assay, the cells were grown in assay media containing various concentrations of compounds (duplicates) on a 96-well flat bottom plate for 72 hours at 37° C. in 5% CO2. The starting cell number was 5000 cells per well and volume was 120 μl. At the end of the 72-hour incubation, 40 μl of XTT labeling mixture (50:1 solution of sodium 3′-[1-(phenylaminocarbonyl)-3,4-tetrazolium]-bis (4-methoxy-6-nitro) benzene sulfonic acid hydrate and Electron-coupling reagent: PMS (N-methyl dibenzopyrazine methyl sulfate) were added to each well of the plate. After an additional 5 hours of incubation at 37° C., the absorbance reading at 450 nm with a background correction of 650 nm was measured with a spectrophotometer.

NTRK3 (TRKC) = NTRK3 (TRKC) (Homo sapiens, UniProt Q16288); test: SelectScreen Kinase Profiling NTRK3; format: biochemical
Text: as §1

GSK3B (GSK3 beta) = GSK3B (GSK3 beta) (Homo sapiens, UniProt P49841); test: SelectScreen Kinase Profiling GSK3B; format: biochemical
Text: as §1

PDK1 = PDK1 (Homo sapiens, UniProt O15530); test: SelectScreen Kinase Profiling PDK1; format: biochemical
Text: as §1

KIT T670I = KIT T670I (Homo sapiens, UniProt P10721, T670I); test: SelectScreen Kinase Profiling KIT T670I; format: biochemical
Text: as §1

RET = RET (Homo sapiens, UniProt P07949); test: SelectScreen Kinase Profiling RET; format: biochemical
Text: as §1

FGFR3 = FGFR3 (Homo sapiens, UniProt P22607); test: SelectScreen Kinase Profiling FGFR3; format: biochemical
Text: as §1

IGF1R = IGF1R (Homo sapiens, UniProt P08069); test: SelectScreen Kinase Profiling IGF1R; format: biochemical
Text: as §1

MERTK (cMER) = MERTK (cMER) (Homo sapiens, UniProt Q12866); test: SelectScreen Kinase Profiling MERTK; format: biochemical
Text: as §1

TYRO3 (RSE) = TYRO3 (RSE) (Homo sapiens, UniProt Q06418); test: SelectScreen Kinase Profiling TYRO3; format: biochemical
Text: as §1

EPHA2 = EPHA2 (Homo sapiens, UniProt P29317); test: SelectScreen Kinase Profiling EPHA2; format: biochemical
Text: as §1

MAP2K1 (MEK1) = MAP2K1 (MEK1) (Homo sapiens, UniProt Q02750); test: SelectScreen Kinase Profiling MAP2K1; format: biochemical
Text: as §1

CDK1/cyclin B = CDK1/cyclin B (Homo sapiens, UniProt P06493); test: SelectScreen Kinase Profiling CDK1/cyclin B; format: biochemical
Chain of CDK1/cyclin B (P06493 whole entry): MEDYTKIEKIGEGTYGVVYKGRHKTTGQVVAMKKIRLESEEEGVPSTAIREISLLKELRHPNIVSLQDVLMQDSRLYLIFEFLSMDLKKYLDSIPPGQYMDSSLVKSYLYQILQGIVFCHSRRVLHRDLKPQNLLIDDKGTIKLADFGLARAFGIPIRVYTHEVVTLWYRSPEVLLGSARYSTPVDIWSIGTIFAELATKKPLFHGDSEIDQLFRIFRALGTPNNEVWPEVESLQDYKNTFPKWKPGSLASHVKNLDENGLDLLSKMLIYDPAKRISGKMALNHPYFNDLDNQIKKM
Chain of CDK1/cyclin B (P14635 whole entry partner): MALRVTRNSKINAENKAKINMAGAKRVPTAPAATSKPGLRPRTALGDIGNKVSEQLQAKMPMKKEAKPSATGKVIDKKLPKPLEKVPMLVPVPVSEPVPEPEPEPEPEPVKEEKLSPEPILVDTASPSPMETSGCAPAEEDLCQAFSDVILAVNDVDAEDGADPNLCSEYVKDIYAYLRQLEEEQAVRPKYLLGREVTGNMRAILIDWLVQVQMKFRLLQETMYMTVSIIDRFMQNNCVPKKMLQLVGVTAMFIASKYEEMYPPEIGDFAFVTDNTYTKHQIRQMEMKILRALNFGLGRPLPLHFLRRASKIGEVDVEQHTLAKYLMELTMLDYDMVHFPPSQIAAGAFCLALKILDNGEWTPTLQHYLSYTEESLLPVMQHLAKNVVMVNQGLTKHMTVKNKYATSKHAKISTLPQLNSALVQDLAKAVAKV
Text: as §1

AKT1 (PKB alpha) = AKT1 (PKB alpha) (Homo sapiens, UniProt P31749); test: SelectScreen Kinase Profiling AKT1; format: biochemical
Text: as §1

CSF1R (FMS) = CSF1R (FMS) (Homo sapiens, UniProt P07333); test: SelectScreen Kinase Profiling CSF1R; format: biochemical
Text: as §1

MST1R (RON) = MST1R (RON) (Homo sapiens, UniProt Q04912); test: SelectScreen Kinase Profiling MST1R; format: biochemical
Text: as §1

AURKA (Aurora A) = AURKA (Aurora A) (Homo sapiens, UniProt O14965); test: SelectScreen Kinase Profiling AURKA; format: biochemical
Chain of AURKA (Aurora A) (O14965 whole entry): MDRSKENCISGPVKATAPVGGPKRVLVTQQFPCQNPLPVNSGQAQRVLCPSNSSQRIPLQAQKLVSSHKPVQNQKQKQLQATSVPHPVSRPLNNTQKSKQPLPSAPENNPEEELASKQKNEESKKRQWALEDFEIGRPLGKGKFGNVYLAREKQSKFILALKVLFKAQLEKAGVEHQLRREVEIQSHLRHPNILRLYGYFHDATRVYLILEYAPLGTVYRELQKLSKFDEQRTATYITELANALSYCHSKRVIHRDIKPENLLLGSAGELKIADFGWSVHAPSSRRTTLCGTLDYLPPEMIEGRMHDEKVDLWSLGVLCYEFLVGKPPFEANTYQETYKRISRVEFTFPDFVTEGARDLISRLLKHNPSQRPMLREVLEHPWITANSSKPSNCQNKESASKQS
Text: as §1

| SMILES | inhibition at 1 µM (PLK1) | inhibition at 1 µM (ROS1) | inhibition at 1 µM (TEK (Tie2)) | inhibition at 1 µM (ALK) | inhibition at 1 µM (JAK2 JH1 JH2 V617F) | inhibition at 1 µM (AURKB (Aurora B)) | inhibition at 1 µM (BRAF V599E) | inhibition at 1 µM (RPS6KB1 (p70S6K)) | inhibition at 1 µM (EGFR (ErbB1)) | IC50 (GTL16 cells) | inhibition at 1 µM (NTRK3 (TRKC)) | inhibition at 1 µM (GSK3B (GSK3 beta)) | inhibition at 1 µM (PDK1) | inhibition at 1 µM (KIT T670I) | inhibition at 1 µM (RET) | inhibition at 1 µM (FGFR3) | inhibition at 1 µM (IGF1R) | inhibition at 1 µM (MERTK (cMER)) | inhibition at 1 µM (TYRO3 (RSE)) | inhibition at 1 µM (EPHA2) | also measured |
| --- | --- | --- | --- | --- | --- | --- | --- | --- | --- | --- | --- | --- | --- | --- | --- | --- | --- | --- | --- | --- | --- |
| Cc1ccc2nnc(Sc3ccc4ncc(-c5cnn(C)c5)cc4c3)n2n1 [Compound 41, 3-(1-Methyl-1H-pyrazol-4-yl)-6-(6-methyl-[1,2,4]triazolo[4,3-b]pyridazin-3-ylsulfanyl)-quinoline] | 0% | 41% | 4% | 23% | 9% | 61% | 7% | 5% | 0% | ≤ 0.1 µM | 85% | 1% | 6% | 4% | 21% | 26% | 6% | 10% | 22% | 2% | inhibition at 1 µM (MAP2K1 (MEK1)): 3%; inhibition at 1 µM (CDK1/cyclin B): 17%; inhibition at 1 µM (AKT1 (PKB alpha)): -1%; inhibition at 1 µM (CSF1R (FMS)): 79%; inhibition at 1 µM (MST1R (RON)): 53%; inhibition at 1 µM (AURKA (Aurora A)): 49% |
| Cn1cc(-c2ccc3nnc(Sc4ccc5ncccc5c4)n3n2)cn1 [Compound 4, 6-[6-(1-Methyl-1H-pyrazol-4-yl)-[1,2,4]triazolo[4,3-b]pyridazin-3-ylsulfanyl]-quinoline] | 0% | 7% | 8% | -10% | -11% | 7% | 36% | 3% | -2% | ≤ 0.1 µM | 7% | 5% | 7% | -12% | 5% | -4% | -3% | 7% | 19% | -23% | inhibition at 1 µM (MAP2K1 (MEK1)): 16%; inhibition at 1 µM (CDK1/cyclin B): 5%; inhibition at 1 µM (AKT1 (PKB alpha)): 5%; inhibition at 1 µM (CSF1R (FMS)): 19%; inhibition at 1 µM (MST1R (RON)): 9%; inhibition at 1 µM (AURKA (Aurora A)): 18% |
